Laboratory results from patent US10538555B2, “Macrocyclic inhibitors of the PD-1/PD-L1 and CD80(B7-1)/PD-L1 protein/protein interactions” (BRISTOL-MYERS SQUIBB COMPANY, priority 2014, dated 2020).
*1 amine or outer side, *2 acyl side, *3 side chain or, on linkers, in order; H or OH if unused. Where a SMILES comes first, the peptide text is derived from it. Bridges are numbered along the chain shown (N, C = ends). [ ]: non-standard residue; d: D form. ξ: configuration not given here. Trp(1-CH2COOH) = N[C@@H](Cc1cn(CC(=O)O)c2ccccc12)C(=O)O; Trp(βS-Me) = C[C@@H](c1c[nH]c2ccccc12)[C@H](N)C(=O)O; Phe(3,4,5-F3) = N[C@@H](Cc1cc(F)c(F)c(F)c1)C(=O)O; Phe(3,4-F2) = N[C@@H](Cc1ccc(F)c(F)c1)C(=O)O; Phe(4-F) = N[C@@H](Cc1ccc(F)cc1)C(=O)O; d(cisHyp) = O=C(O)[C@H]1C[C@@H](O)CN1; Hyp = O=C(O)[C@@H]1C[C@@H](O)CN1; NMeF = CN[C@@H](Cc1ccccc1)C(=O)O; X1 = O=C([C@H]1COCCN1[*:1])[*:2]; dPip(4-aza) = O=C(O)[C@H]1CNCCN1; dHyp = O=C(O)[C@H]1C[C@H](O)CN1; NMehSer = CN[C@@H](CCO)C(=O)O; NMeNle = CCCC[C@H](NC)C(=O)O; hSer = N[C@@H](CCO)C(=O)O; NMeA = CN[C@@H](C)C(=O)O; Orn = NCCC[C@H](N)C(=O)O; Dab = NCC[C@H](N)C(=O)O; Dap = NC[C@H](N)C(=O)O; ξC = NC(CS)C(=O)O; Sar = CNCC(=O)O

Target: T1, Human PD-L1/PD-1 (Homo sapiens, UniProt Q9NZQ7)
T1 construct: TVMV protease cleavage site (C); made in house; host or cells: HEK293T cells
Experiment: HTRF Human PD-L1/PD-1 binding assay (PD-1-Ig/PD-L1-His)
Conditions: PD-L1-His 10 nM, PD-1-Ig 20 nM; class symbol; read-out: HTRF Human PD-L1/PD-1 Binding Assay IC50 Range
Outline: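 Compound preincubated 15 min with PD-L1-His (10 nM final), then PD-1-Ig (20 nM final) added for 15 min in dPBS with 0.1% BSA and 0.05% Tween-20. Detection by Eu-cryptate anti-Ig (1 nM) and APC anti-His (20 nM) after 30 min; 665/620 nm HTRF ratio. Proteins expressed in HEK293T.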

T1 sequence (Q9NZQ7 with tags, fused parts or gaps): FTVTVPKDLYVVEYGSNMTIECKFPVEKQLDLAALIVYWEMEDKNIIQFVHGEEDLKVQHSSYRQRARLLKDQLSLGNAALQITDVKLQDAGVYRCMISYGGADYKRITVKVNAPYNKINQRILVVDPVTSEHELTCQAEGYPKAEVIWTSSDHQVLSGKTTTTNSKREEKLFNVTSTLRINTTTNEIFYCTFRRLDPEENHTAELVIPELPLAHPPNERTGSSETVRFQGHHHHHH

SMILES | IC50
CCCC[C@H]1C(=O)N2C[C@H](O)C[C@@H]2C(=O)N[C@@H](CC(=O)O)C(=O)N[C@@H](C(C)C)C(=O)N(C)[C@@H](Cc2ccccc2)C(=O)N[C@@H](CCC(=O)O)C(=O)N2CCNC[C@@H]2C(=O)N[C@@H](Cc2c[nH]c3ccccc23)C(=O)N[C@@H](Cc2ccc(O)cc2)C(=O)N[C@@H](CCCN)C(=O)N[C@H](C(=O)NCC(N)=O)CSCC(=O)N[C@@H](Cc2ccc(F)cc2)C(=O)N(C)[C@@H](Cc2ccccc2)C(=O)N1C [Example 3648] ({CH2CO}-[Phe(4-F)][NMeF][NMeNle][d(cisHyp)]DV[NMeF]E[dPip(4-aza)]WY[Orn]CG-NH2; thioether N-13) | 10 to 99.9 nM
CCCC[C@H]1C(=O)N(C)[C@@H](CCCC)C(=O)N[C@@H](CCC(=O)O)C(=O)N[C@H](C(=O)NCC(N)=O)CSCC(=O)N[C@@H](Cc2ccc(OC)cc2)C(=O)N(C)[C@@H](C)C(=O)N[C@@H](CC(N)=O)C(=O)N2CCC[C@H]2C(=O)N[C@@H](Cc2cnc[nH]2)C(=O)N[C@@H](CCC(=O)O)C(=O)N2C[C@H](O)C[C@H]2C(=O)N[C@@H](Cc2c[nH]c3ccccc23)C(=O)N[C@@H](CC(=O)O)C(=O)N[C@@H](Cc2c[nH]c3ccccc23)C(=O)N1C [Example 7124] ({CH2CO}-Y(Me)[NMeA]NPHE[Hyp]WDW[NMeNle][NMeNle]ECG-NH2; thioether N-14) | 10 to 99.9 nM
CCCC[C@H]1C(=O)N2C[C@H](O)C[C@@H]2C(=O)N[C@@H](CC(=O)O)C(=O)N[C@@H](C(C)C)C(=O)N(C)[C@@H](Cc2ccccc2)C(=O)N[C@@H](CCC(N)=O)C(=O)N2C[C@H](O)C[C@@H]2C(=O)N[C@@H](Cc2c[nH]c3ccccc23)C(=O)N[C@@H](Cc2ccc(O)cc2)C(=O)N[C@@H](CCCN)C(=O)N[C@H](C(=O)NCC(N)=O)CSCC(=O)N[C@@H](Cc2cc(F)c(F)c(F)c2)C(=O)N(C)[C@@H](Cc2ccccc2)C(=O)N1C [Example 9354] ({CH2CO}-[Phe(3,4,5-F3)][NMeF][NMeNle][d(cisHyp)]DV[NMeF]Q[d(cisHyp)]WY[Orn]CG-NH2; thioether N-13) | 1 to 9.9 nM
CCCC[C@H]1C(=O)N(C)[C@@H](CCCC)C(=O)N[C@@H](CC(C)C)C(=O)N[C@H](C(=O)NCC(N)=O)CSCC(=O)N[C@@H](Cc2ccc(O)cc2)C(=O)N(C)[C@@H](C)C(=O)N[C@@H](CC(=O)O)C(=O)N2CCC[C@H]2C(=O)N[C@@H](CN)C(=O)N[C@@H](CC(C)C)C(=O)N2C[C@H](O)C[C@H]2C(=O)N[C@@H](Cc2c[nH]c3ccccc23)C(=O)N[C@@H](CCN)C(=O)N[C@@H](Cc2cn(CC(=O)O)c3ccccc23)C(=O)N1C [Example 5171] ({CH2CO}-Y[NMeA]DP[Dap]L[Hyp]W[Dab][Trp(1-CH2COOH)][NMeNle][NMeNle]LCG-NH2; thioether N-14) | 1 to 9.9 nM
CCCC[C@H]1C(=O)N[C@@H](CC(=O)O)C(=O)N2CCC[C@H]2C(=O)N[C@@H](Cc2c[nH]cn2)C(=O)N[C@@H](CCC(N)=O)C(=O)N2C[C@H](O)C[C@H]2C(=O)N[C@@H]([C@@H](C)c2c[nH]c3ccccc23)C(=O)N[C@@H](CO)C(=O)N[C@@H](Cc2c[nH]c3ccccc23)C(=O)N(C)[C@@H](C)C(=O)N(C)[C@@H](C)C(=O)N[C@@H](CCC(=O)O)C(=O)N[C@H](C(=O)NCC(N)=O)CSCC(=O)N[C@@H](Cc2ccc(O)cc2)C(=O)N1C [Example 10544] ({CH2CO}-Y[NMeNle]DPHQ[Hyp][Trp(βS-Me)]SW[NMeA][NMeA]ECG-NH2; thioether N-14) | 1000 to 10000 nM
CCCC[C@H]1C(=O)N(C)[C@@H](CCCC)C(=O)N[C@@H](CCC(=O)O)C(=O)N[C@H](C(=O)NCC(N)=O)CSCC(=O)N[C@@H](Cc2ccc(O)cc2)C(=O)N(C)[C@@H](C)C(=O)N[C@@H](CC(N)=O)C(=O)N2CCC[C@H]2C(=O)N[C@@H](CN)C(=O)N[C@@H](CCC(=O)O)C(=O)N2C[C@H](O)C[C@H]2C(=O)N[C@@H](Cc2c[nH]c3ccccc23)C(=O)N[C@@H](CO)C(=O)N[C@@H](Cc2c[nH]c3ccccc23)C(=O)N1C [Example 5242] ({CH2CO}-Y[NMeA]NP[Dap]E[Hyp]WSW[NMeNle][NMeNle]ECG-NH2; thioether N-14) | 1 to 9.9 nM
CCCC[C@H]1C(=O)N2C[C@H](O)C[C@@H]2C(=O)N[C@@H](CC(=O)O)C(=O)N[C@@H](C(C)C)C(=O)N(C)[C@@H](Cc2ccccc2)C(=O)N[C@@H](CCC(=O)O)C(=O)N2CCNC[C@@H]2C(=O)N[C@@H](Cc2c[nH]c3ccccc23)C(=O)N[C@@H](Cc2ccc(O)cc2)C(=O)N[C@@H](CCCCN)C(=O)N[C@H](C(=O)NCC(N)=O)CSCC(=O)N[C@@H](Cc2cc(F)c(F)c(F)c2)C(=O)N(C)[C@@H](Cc2ccccc2)C(=O)N1C [Example 10164] ({CH2CO}-[Phe(3,4,5-F3)][NMeF][NMeNle][d(cisHyp)]DV[NMeF]E[dPip(4-aza)]WYKCG-NH2; thioether N-13) | 1 to 9.9 nM
CCCC[C@H]1C(=O)N[C@@H](CC(N)=O)C(=O)N2CCC[C@H]2C(=O)N[C@@H](CO)C(=O)N[C@@H](CCO)C(=O)N2C[C@H](O)C[C@H]2C(=O)N[C@@H](Cc2c[nH]c3ccccc23)C(=O)N[C@@H](CCCN)C(=O)N[C@@H](Cc2c[nH]c3ccccc23)C(=O)N(C)[C@@H](C)C(=O)N(C)CC(=O)N[C@@H](CCCNC(=N)N)C(=O)NC(C(=O)NCC(N)=O)CSCC(=O)N[C@@H](Cc2ccc(O)cc2)C(=O)N1C (some centres unmarked) [Example 10207] ({CH2CO}-Y[NMeNle]NPS[hSer][Hyp]W[Orn]W[NMeA][Sar]R[ξC]G-NH2; thioether N-14) | 1000 to 10000 nM
CCCC[C@H]1C(=O)N2C[C@H](O)C[C@@H]2C(=O)N[C@@H](CC(=O)O)C(=O)N[C@@H](C(C)C)C(=O)N(C)[C@@H](Cc2ccccc2)C(=O)N[C@@H](CCC(=O)O)C(=O)N2CCOC[C@@H]2C(=O)N[C@@H](Cc2c[nH]c3ccccc23)C(=O)N[C@@H](Cc2ccc(O)cc2)C(=O)N[C@@H](CCO)C(=O)N[C@H](C(=O)NCC(N)=O)CSCC(=O)N[C@@H](Cc2cc(F)c(F)c(F)c2)C(=O)N(C)[C@@H](Cc2ccccc2)C(=O)N1C [Example 10156] ({CH2CO}-[Phe(3,4,5-F3)][NMeF][NMeNle][d(cisHyp)]DV[NMeF]E[X1]WY[hSer]CG-NH2; thioether N-13) | 1 to 9.9 nM
COCC[C@H]1C(=O)N2C[C@@H](O)C[C@@H]2C(=O)N[C@@H](CC(=O)O)C(=O)N[C@@H](C(C)C)C(=O)N(C)[C@@H](Cc2ccccc2)C(=O)N[C@@H](Cc2ccc(O)cc2)C(=O)N2C[C@@H](O)C[C@@H]2C(=O)N[C@@H](Cc2c[nH]c3ccccc23)C(=O)N[C@@H](Cc2ccc(O)cc2)C(=O)N[C@@H](CC(C)C)C(=O)N[C@H](C(=O)NCC(N)=O)CSCC(=O)N[C@@H](Cc2ccc(F)c(F)c2)C(=O)N(C)[C@@H](Cc2ccccc2)C(=O)N1C [Example 9233] ({CH2CO}-[Phe(3,4-F2)][NMeF][NMehSer](Me)[dHyp]DV[NMeF]Y[dHyp]WYLCG-NH2; thioether N-13) | 1 to 9.9 nM
CCCC[C@H]1C(=O)N(C)[C@@H](CCCC)C(=O)N[C@@H](CCC(=O)O)C(=O)NC(C(=O)NCC(N)=O)CSCC(=O)N[C@@H](Cc2ccc(O)cc2)C(=O)N(C)[C@@H](C)C(=O)N[C@@H](CC(N)=O)C(=O)N2CCC[C@H]2C(=O)N[C@@H](Cc2c[nH]cn2)C(=O)N[C@@H](CC(N)=O)C(=O)N2C[C@H](O)C[C@H]2C(=O)N[C@@H](Cc2c[nH]c3ccccc23)C(=O)N[C@@H](CN)C(=O)N[C@@H](Cc2c[nH]c3ccccc23)C(=O)N1C (some centres unmarked) [Example 9179] ({CH2CO}-Y[NMeA]NPHN[Hyp]W[Dap]W[NMeNle][NMeNle]E[ξC]G-NH2; thioether N-14) | 100 to 990 nM
